Data published in US20220008372A1, “BACLOFEN FOR USE IN THE TOPICAL TREATMENT OF LOCALIZED MUSCULOSKELETAL PAIN” (ASSISTANCE PUBLIQUE - HOPITAUX DE PARIS, priority 2018, published 2022).

What was measured:
[1] = test system: patients with localized musculoskeletal pain; test: Example III: case reports of 3 patients applying topical baclofen; type: in vivo, human
[2] = test system: patients with localized musculoskeletal pain; test: Example 1: topical Baclofen cream in 19 patients, pain intensity on Visual Analogue Scale; type: in vivo, human; conditions: patient, facioscapulohumeral muscular dystrophy, before applying topical baclofen
Description: The cream was prepared with Baclofen powder mixed with a Pentravan® Base (Fagron) at a final concentration of 10% w/w.
The intensity of pain was rated using a Visual Analogue Scale (VAS) from 1 to 10.

[3] = patient, Facioscapulohumeral muscular dystrophy, before topical baclofen

Q: Which “efficiency of earlier pain treatment” value [1, 3] does the source give for `C=CC1CN2CCC1CC2C(O)c1ccnc2ccc(OC)cc12.O=C(O)c1ccccc1` (stereo not drawn) [Quinine benzoate] here?
A: poor efficiency

Q: `COc1c(O[C@@H]2O[C@H](CO)[C@@H](O)[C@H](O)[C@H]2O)cc2c(c1OC)-c1ccc(SC)c(=O)cc1[C@@H](NC(C)=O)CC2` [Thiocolchicoside] was tested. Which “efficiency of earlier pain treatment” value ([1]; human, in vivo) did it give?
A: poor efficiency

Q: How did the “efficiency of earlier pain treatment” value [2] turn out when `CN(C)CCC=C1c2ccccc2CCc2ccccc21` [amitriptyline] was run?
A: poor efficiency

Q: And the “efficiency of earlier pain treatment” value [1, 3]?
A: poor efficiency

Q: How did the “efficiency of earlier pain treatment” value ([1]; human, in vivo) turn out when `NCC(CC(=O)O)c1ccc(Cl)cc1` (stereo not drawn) [baclofen per os, β-(4-chlorophenyl)-γ-aminobutyric acid] was run?
A: poor efficiency

Q: `NCC1(CC(=O)O)CCCCC1` [gabapentine] was tested. Which “efficiency of earlier pain treatment” value [2] did it give?
A: poor efficiency

Q: For `CC(C(=O)O)c1cccc(C(=O)c2ccccc2)c1` (stereo not drawn) [ketoprofene], which “efficiency of earlier pain treatment” value [2] is on record?
A: poor efficiency

Q: With `CC(=O)Nc1ccc(O)cc1` [paracetamol] as the compound, how does the “efficiency of earlier pain treatment” value [2] read?
A: poor efficiency

Q: How did the “efficiency of earlier pain treatment” value [2] turn out when `COc1cccc(C2(O)CCCCC2CN(C)C)c1` (stereo not drawn) [tramadol] was run?
A: poor efficiency
